# In publication PMC8222254, “Self-assembly of an anion receptor with metal-dependent kinase inhibition and potent in vitro anti-cancer properties” (Nature Communications, 2021):
# “And” between values parts separate entries of the source, which are not always exact repeats. Equal values may be shown once.
# Key:
# Test in all cases: Kinase inhibition screen, cell-free 33P ATP assay at 10 μM
# Type in all cases: biochemical
# [1] = target: T1, 140 purified human kinases (Homo sapiens, UniProt O00418); settings: EF2K
# T1 sequence (O00418 1-725): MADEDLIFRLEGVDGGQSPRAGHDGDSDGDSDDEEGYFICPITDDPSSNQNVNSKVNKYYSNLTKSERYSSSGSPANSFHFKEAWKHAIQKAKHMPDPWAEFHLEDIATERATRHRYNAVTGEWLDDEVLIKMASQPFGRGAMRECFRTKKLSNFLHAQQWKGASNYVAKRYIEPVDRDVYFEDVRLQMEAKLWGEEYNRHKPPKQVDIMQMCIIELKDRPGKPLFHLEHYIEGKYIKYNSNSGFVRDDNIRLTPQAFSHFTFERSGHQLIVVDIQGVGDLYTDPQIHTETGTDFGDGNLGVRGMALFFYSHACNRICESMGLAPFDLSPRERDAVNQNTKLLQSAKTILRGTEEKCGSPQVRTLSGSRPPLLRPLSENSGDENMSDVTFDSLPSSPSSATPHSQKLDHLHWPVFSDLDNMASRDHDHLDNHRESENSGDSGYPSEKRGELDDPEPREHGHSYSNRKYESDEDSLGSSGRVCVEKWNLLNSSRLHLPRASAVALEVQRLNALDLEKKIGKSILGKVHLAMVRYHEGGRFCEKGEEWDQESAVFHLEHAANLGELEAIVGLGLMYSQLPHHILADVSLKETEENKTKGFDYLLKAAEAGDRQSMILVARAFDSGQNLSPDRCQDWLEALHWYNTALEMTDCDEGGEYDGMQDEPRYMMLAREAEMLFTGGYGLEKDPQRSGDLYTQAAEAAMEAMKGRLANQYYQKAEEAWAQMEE
# Outline: (§1)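 Each complex tested in duplicate at 10 μM; cell-free radiometric assay using ^33P ATP on purified enzymes. Hits mapped by HGNC symbol onto the kinome tree.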
# [2] = target: 140 purified human kinases (Homo sapiens, UniProt P36507)
# Outline: as §1
# [3] = target: 140 purified human kinases (Homo sapiens, UniProt P43405); settings: SYK
# Outline: as §1
# [4] = target: T2, 140 purified human kinases (Homo sapiens, UniProt Q05513); settings: PKCz; for % Activity inhibition Mean / % Activity inhibition Run 1 / % Activity inhibition Run 2 / % Activity remaining Run 1 / % Activity remaining Run 2: 10 µM
# T2 sequence (Q05513 1-592): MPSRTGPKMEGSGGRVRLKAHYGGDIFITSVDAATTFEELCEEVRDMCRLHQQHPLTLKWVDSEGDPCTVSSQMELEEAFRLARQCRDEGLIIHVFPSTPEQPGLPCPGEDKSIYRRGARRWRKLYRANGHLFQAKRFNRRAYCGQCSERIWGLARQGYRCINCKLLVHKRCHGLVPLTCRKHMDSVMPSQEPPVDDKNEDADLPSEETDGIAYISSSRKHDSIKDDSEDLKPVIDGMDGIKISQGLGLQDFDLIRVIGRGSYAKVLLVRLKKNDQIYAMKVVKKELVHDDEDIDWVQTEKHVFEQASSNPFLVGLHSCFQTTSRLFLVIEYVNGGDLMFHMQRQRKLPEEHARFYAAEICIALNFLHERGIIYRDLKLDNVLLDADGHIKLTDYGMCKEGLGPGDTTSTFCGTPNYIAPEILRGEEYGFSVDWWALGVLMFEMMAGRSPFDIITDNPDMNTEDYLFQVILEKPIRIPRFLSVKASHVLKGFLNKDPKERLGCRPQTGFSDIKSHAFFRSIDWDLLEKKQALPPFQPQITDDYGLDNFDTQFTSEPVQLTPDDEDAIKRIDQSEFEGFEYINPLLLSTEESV
# Outline: as §1
# [5] = target: 140 purified human kinases (Homo sapiens, UniProt Q13233)
# Outline: as §1
# [6] = target: T3, 140 purified human kinases (Homo sapiens, UniProt Q9UHD2)
# T3 sequence (Q9UHD2 1-729): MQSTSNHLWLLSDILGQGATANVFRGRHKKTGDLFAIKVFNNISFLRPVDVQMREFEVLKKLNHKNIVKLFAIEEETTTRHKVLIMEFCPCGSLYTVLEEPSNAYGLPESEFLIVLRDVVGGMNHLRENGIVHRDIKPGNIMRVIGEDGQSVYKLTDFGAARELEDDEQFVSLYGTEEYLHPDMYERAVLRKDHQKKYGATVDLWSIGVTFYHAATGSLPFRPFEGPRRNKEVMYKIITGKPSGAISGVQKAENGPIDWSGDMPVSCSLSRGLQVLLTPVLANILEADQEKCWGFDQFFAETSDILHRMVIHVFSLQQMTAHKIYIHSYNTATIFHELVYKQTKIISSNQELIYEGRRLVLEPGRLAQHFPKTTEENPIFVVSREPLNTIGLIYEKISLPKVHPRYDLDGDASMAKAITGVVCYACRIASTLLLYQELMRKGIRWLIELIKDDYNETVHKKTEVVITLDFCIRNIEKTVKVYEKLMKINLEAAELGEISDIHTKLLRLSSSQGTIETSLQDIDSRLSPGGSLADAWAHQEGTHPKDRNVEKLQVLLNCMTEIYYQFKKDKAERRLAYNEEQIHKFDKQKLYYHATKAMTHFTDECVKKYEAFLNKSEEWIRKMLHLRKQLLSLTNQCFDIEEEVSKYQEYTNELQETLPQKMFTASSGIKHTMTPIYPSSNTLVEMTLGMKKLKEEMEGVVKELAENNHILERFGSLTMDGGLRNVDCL
# Outline: as §1
# Chain of 140 purified human kinases (Homo sapiens, UniProt P36507) (P36507 whole entry): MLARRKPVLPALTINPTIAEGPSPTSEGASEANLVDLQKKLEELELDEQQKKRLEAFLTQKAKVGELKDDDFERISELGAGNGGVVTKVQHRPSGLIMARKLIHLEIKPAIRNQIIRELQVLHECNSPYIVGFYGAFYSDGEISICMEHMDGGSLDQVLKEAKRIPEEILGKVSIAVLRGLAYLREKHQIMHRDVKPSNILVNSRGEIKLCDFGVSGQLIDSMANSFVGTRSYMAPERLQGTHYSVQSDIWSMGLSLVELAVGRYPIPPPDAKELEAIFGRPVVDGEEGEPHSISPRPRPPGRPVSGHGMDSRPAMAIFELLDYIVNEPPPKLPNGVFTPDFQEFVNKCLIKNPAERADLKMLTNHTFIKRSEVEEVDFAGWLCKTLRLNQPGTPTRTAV
# Chain of 140 purified human kinases (Homo sapiens, UniProt Q13233) (Q13233 whole entry): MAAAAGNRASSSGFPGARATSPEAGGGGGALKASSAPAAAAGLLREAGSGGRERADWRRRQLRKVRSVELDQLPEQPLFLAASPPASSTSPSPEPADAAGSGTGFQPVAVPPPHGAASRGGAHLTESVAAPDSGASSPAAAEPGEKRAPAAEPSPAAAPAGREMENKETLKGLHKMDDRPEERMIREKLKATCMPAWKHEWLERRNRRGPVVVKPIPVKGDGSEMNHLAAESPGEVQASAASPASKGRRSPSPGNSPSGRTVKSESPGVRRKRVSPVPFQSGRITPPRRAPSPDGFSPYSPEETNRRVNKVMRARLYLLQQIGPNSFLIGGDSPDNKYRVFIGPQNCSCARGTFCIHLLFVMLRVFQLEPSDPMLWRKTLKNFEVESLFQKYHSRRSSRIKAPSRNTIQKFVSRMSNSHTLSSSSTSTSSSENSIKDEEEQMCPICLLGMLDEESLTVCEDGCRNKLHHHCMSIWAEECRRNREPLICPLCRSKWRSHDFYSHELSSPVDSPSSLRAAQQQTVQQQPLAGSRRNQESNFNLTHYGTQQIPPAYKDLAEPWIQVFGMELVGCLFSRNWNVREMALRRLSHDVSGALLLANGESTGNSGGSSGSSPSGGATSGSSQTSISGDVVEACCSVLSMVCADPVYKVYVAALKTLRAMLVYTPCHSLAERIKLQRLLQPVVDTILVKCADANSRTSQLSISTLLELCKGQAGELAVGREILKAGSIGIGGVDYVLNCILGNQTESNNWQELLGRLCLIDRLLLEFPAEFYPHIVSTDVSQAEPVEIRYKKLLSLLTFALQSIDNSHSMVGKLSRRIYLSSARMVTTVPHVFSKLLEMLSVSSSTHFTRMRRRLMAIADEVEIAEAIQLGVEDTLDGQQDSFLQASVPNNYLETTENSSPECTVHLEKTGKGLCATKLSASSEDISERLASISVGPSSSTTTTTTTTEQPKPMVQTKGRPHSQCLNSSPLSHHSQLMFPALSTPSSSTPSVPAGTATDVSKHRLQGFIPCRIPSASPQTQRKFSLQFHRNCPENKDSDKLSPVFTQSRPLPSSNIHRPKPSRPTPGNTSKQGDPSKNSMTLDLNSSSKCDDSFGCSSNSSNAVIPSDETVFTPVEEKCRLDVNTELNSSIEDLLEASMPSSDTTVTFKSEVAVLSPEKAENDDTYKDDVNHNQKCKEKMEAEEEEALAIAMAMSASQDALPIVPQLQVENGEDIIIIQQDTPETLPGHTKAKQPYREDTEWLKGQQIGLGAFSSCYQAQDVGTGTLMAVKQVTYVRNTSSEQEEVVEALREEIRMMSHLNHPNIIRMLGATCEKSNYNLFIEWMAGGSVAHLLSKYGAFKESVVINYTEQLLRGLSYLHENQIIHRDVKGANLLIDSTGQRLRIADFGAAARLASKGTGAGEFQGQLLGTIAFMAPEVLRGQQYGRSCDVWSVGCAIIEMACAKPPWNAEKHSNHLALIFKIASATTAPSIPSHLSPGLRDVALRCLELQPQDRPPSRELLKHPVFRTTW
compound,measurement,setting,value
[Cu+2].[Cu+2].[Cu+2].c1ccc(-c2csc(NCCN(CCNc3nc(-c4ccccn4)cs3)CCNc3nc(-c4ccccn4)cs3)n2)nc1.c1ccc(-c2csc(NCCN(CCNc3nc(-c4ccccn4)cs3)CCNc3nc(-c4ccccn4)cs3)n2)nc1 [[L2Cu3]6+],% Inhibition Run 1,[1],60.6%
same,% Inhibition Run 2,[1],65.9%
same,"% Inhibition, Mean",[1],63%
same,mean % activity,[1],37%
same,% activity,[1]; Run 1,39.4%
same,% activity,[1]; Run 2,34.1%
same,% Inhibition Run 1,[2]; MKK2,70.5%
same,% Inhibition Run 2,[2]; MKK2,79%
same,"% Inhibition, Mean",[2]; MKK2,75%
same,mean % activity,[2]; MKK2,25%
same,% activity,"[2]; MKK2, Run 1",29.5%
same,% activity,"[2]; MKK2, Run 2",21%
same,% Inhibition Run 1,[3],88%
same,% Inhibition Run 2,[3],79.4%
same,"% Inhibition, Mean",[3],84%
same,mean % activity,[3],16%
same,% activity,[3]; Run 1,12%
same,% activity,[3]; Run 2,20.6%
same,% Inhibition Run 1,[4],92.5%
same,% Inhibition Run 2,[4],95.1%
same,"% Inhibition, Mean",[4],94%
same,mean % activity,[4],6%
same,% activity,[4]; Run 1,7.5%
same,% activity,[4]; Run 2,4.9%
same,% Activity inhibition Mean,[4],93.8%
same,% Activity inhibition Run 1,[4],92.5%
same,% Activity inhibition Run 2,[4],95.1%
same,% Activity remaining Run 1,[4],7.50%
same,% Activity remaining Run 2,[4],4.90%
same,% Inhibition Run 1,[5]; MEKK1,48.4%
same,% Inhibition Run 2,[5]; MEKK1,57.6%
same,"% Inhibition, Mean",[5]; MEKK1,53%
same,mean % activity,[5]; MEKK1,47%
same,% activity,"[5]; MEKK1, Run 1",51.6%
same,% activity,"[5]; MEKK1, Run 2",42.4%
same,% Inhibition Run 1,[6]; TBK1,60.3%
same,% Inhibition Run 2,[6]; TBK1,64%
same,"% Inhibition, Mean",[6]; TBK1,62%
same,mean % activity,[6]; TBK1,38%
same,% activity,"[6]; TBK1, Run 1",39.7%
same,% activity,"[6]; TBK1, Run 2",36%
CC(=O)[O-].CC(=O)[O-].CC(=O)[O-].CC(=O)[O-].CC(=O)[O-].CC(=O)[O-].[Zn+2].[Zn+2].[Zn+2].c1ccc(-c2csc(NCCN(CCNc3nc(-c4ccccn4)cs3)CCNc3nc(-c4ccccn4)cs3)n2)nc1.c1ccc(-c2csc(NCCN(CCNc3nc(-c4ccccn4)cs3)CCNc3nc(-c4ccccn4)cs3)n2)nc1 [[L2Zn3]6+],"% Activation, Mean value",[1],0.8%
same,"% Inhibition, Mean",[1],-0.8%
same,"% Inhibition, Run 1 / Run 2",[1],2% and -3.6%
same,mean % activity,[1],101%
same,% activity,[1]; duplicate runs,98% and 104%
same,"% Inhibition, Mean",[2]; MKK2,42%
same,"% Inhibition, Run 1 / Run 2",[2]; MKK2,40% and 45%
same,mean % activity,[2]; MKK2,58%
same,% activity,"[2]; MKK2, duplicate runs",60% and 55%
same,"% Inhibition, Mean",[3],29%
same,mean % activity,[3],71%
same,% activity,[3]; duplicate runs,58% and 84%
same,"% Inhibition, Mean",[4],88%
same,"% Inhibition, Run 1 / Run 2",[4],89% and 87%
same,mean % activity,[4],12%
same,% Activity inhibition Mean,[4],88.0%
same,% Activity inhibition Run 1,[4],89%
same,% Activity inhibition Run 2,[4],87%
same,% Activity remaining Run 1,[4],11%
same,% Activity remaining Run 2,[4],13%
same,% activity,[4]; duplicate runs,11% and 13%
same,"% Inhibition, Mean",[5]; MEKK1,17%
same,mean % activity,[5]; MEKK1,83%
same,% activity,"[5]; MEKK1, duplicate runs",75% and 92%
same,"% Inhibition, Mean",[6]; TBK1,13%
same,mean % activity,[6]; TBK1,87%
same,% activity,"[6]; TBK1, duplicate runs",81% and 93%
